Test results as given in patent US8188080B2 (Sanford-Burnham Medical Research Institute, priority 2007, dated 2012).
Where two headings read alike, the source gives them in different places.

Target: T1, CD45 (Homo sapiens, UniProt P08575)
T1 sequence (P08575 26-1306): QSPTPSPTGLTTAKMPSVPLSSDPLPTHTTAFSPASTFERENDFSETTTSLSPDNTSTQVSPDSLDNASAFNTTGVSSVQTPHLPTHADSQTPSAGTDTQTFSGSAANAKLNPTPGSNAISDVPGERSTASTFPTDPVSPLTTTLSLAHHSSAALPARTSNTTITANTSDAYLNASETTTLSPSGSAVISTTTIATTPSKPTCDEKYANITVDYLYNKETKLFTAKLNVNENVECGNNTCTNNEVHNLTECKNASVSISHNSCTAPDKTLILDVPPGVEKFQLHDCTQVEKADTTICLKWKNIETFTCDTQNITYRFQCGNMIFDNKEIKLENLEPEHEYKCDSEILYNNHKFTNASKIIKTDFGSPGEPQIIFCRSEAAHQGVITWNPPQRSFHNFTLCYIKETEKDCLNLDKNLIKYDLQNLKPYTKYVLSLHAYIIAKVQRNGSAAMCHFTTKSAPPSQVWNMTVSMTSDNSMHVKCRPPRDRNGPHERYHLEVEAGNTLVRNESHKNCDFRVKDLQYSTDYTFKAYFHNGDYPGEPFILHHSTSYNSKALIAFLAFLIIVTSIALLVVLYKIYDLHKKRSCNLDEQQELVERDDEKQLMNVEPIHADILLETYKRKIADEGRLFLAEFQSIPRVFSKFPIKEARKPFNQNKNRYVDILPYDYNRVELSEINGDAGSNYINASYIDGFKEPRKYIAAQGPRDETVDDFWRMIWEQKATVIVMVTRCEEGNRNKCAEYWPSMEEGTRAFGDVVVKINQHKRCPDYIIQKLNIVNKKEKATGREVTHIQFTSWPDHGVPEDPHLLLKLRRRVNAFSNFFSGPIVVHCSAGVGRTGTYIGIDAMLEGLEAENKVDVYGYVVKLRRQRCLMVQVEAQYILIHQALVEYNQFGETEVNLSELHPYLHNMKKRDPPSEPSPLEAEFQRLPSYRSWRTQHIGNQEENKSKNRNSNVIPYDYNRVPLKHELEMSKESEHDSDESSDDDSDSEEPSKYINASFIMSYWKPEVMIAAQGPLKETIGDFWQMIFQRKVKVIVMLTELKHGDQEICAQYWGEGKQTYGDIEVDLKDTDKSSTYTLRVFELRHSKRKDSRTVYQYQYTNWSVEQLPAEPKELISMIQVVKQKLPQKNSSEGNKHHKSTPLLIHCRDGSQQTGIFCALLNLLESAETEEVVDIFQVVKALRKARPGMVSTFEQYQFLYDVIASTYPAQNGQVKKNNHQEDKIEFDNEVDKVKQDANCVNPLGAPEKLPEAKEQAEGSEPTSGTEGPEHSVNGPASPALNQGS
Assay: PTP-catalyzed hydrolysis of DiFMUP, IC50 determination (CD45)
Assay type: biochemical
Protocol: The PTP-catalyzed hydrolysis of 6,8-difluoro-4-methylumbelliferyl phosphate (DiFMUP) in the presence of the test compound is assayed at 30° C. in a 60 μL 96 well format reaction system in 0.15 M Bis-Tris, pH 6.0 assay buffer having an ionic strength of 150 mM (adjusted with NaCl) and containing 1 mM dithiotreitol and 5% DMSO. At various concentrations of the compound, the initial rate at fixed DiFMUP concentration (equal to the corresponding Km value for each PTP) was determined using a FLx800 micro plate reader (Bio-Tek Instruments, Inc.), an excitation wave length of 360 nm and measuring the emission of the fluorescent reaction product 6,8-difluoro-7-hydroxy-4-methylcoumarin (DiFMU) at 460 nm. The nonenzymatic hydrolysis of the substrate was corrected by measuring the control without addition of enzyme. The IC50 value was determined by plotting the relative activity versus inhibitor concentrations and fitting to Equation 1 using the software GraphPad Prism™ (GraphPad Software, Inc.).
[formula] In this case, Vi, is the reaction velocity when the inhibitor concentration is [I], V0 is the reaction velocity with no inhibitor and IC50=Ki+Ki[S]/Km.

[1] = Table II, DiFMUP at Km, pH 6.0, 30° C.

O=C1/C(=C/c2cn(-c3ccccc3)nc2-c2ccc(OCc3ccccc3)cc2)SC(=S)N1CCS(=O)(=O)O [Compound 9] was tested. Which IC50 [1] did it give?
Its IC50 is 609 nM.

Which IC50 [1] does the source give for O=C1/C(=C/c2cn(-c3ccccc3)nc2-c2ccc(OCc3ccc(Cl)cc3)cc2)SC(=S)N1CCS(=O)(=O)O [Compound 10, (Z)-2-[5-({3-[4-(4-chlorobenzyloxy)phenyl]-1-phenyl-1H-pyrazol-4-yl}methylene)-4-oxo-2-thioxothiazolidin-3-yl]ethane sulfonic acid] here?
Its IC50 is 460 nM.

For O=C1/C(=C/c2cn(-c3ccccc3)nc2-c2ccc(S(=O)(=O)N3CCOCC3)cc2)SC(=S)N1CCS(=O)(=O)O [Compound 14], which IC50 is on record?
The IC50 was 303 nM.
